Some test systems named below: DU-145 prostate; SF-295 CNS; MDA-MB-231 breast; SK-OV-3 ovarian; UACC-257 melanoma; HOP-62 NSCLC; CAKI-1 renal; COLO 205 colon; K-562 leukemia; TK-10 renal.
Test in all cases: NCI tumour cell line growth inhibition, 48 h

Each structure is given as a SMILES string. Where “and” joins values, the source holds several entries; their conditions need not be identical. Equal values may be shown once.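 In this assay, cells in 96-well plates receive the compound at five concentrations for 48 hours. Endpoints are linearly interpolated between the surrounding concentrations. GI50: concentration for 50% inhibition of growth. The concentration for full growth arrest is given as TGI.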

Take `NC(=O)c1cccnc1`: the GI50 with DU-145 prostate, with SF-295 CNS, with MDA-MB-231 breast, with SK-OV-3 ovarian, in the assay on UACC-257 melanoma and with HOP-62 NSCLC was more than 100 µM each time. The GI50 in the assay on CAKI-1 renal is more than 100000 nM; in the assay on COLO 205 colon, more than 100 µM; with K-562 leukemia, more than 100000 nM; in the assay with TK-10 renal, more than 100 µM. For the same compound, the TGI in the assay with DU-145 prostate, in the assay with SF-295 CNS, in the assay with MDA-MB-231 breast, in the assay with SK-OV-3 ovarian, in the assay on UACC-257 melanoma and in the assay with HOP-62 NSCLC was more than 100 µM throughout. For the same compound, the TGI with CAKI-1 renal, in the assay with COLO 205 colon, in the assay on K-562 leukemia and in the assay with TK-10 renal was more than 100 µM throughout.
With `O=[N+]([O-])c1cc([As](Br)c2ccc(O)c([N+](=O)[O-])c2)ccc1O`, the TGI was 4.59 µM with DU-145 prostate; 3.61 µM with SF-295 CNS; 3.11 µM with MDA-MB-231 breast; 9.71 µM in the assay with SK-OV-3 ovarian; 3.33 µM in the assay with UACC-257 melanoma; 4.87 µM in the assay on HOP-62 NSCLC. The TGI in the assay on CAKI-1 renal is 3.42 µM; with COLO 205 colon it was 3.25 µM; in the assay on K-562 leukemia it was more than 23.2 µM; in the assay on TK-10 renal, 3.14 µM.
As for `COc1ccc(C2=NC(=O)NC2c2ccc(OC)cc2)cc1` (stereo not given), the GI50 in the assay with DU-145 prostate is 23 µM; in the assay on SF-295 CNS, 5.35 µM; in the assay on MDA-MB-231 breast it was 12.3 µM; in the assay on SK-OV-3 ovarian, 19.9 µM; with UACC-257 melanoma, 36.3 µM; with HOP-62 NSCLC, 15.2 µM. Moreover, the GI50 with CAKI-1 renal was 2510 nM; with COLO 205 colon it was 6.47 µM; with K-562 leukemia it was 2800 nM; with TK-10 renal, 4.43 µM. Besides, the TGI with DU-145 prostate is more than 100 µM; in the assay on SF-295 CNS it was 47.5 µM; in the assay with MDA-MB-231 breast, more than 100 µM; with SK-OV-3 ovarian it was more than 100 µM; in the assay with UACC-257 melanoma, more than 100 µM; in the assay on HOP-62 NSCLC, more than 100 µM. Besides, the TGI in the assay on CAKI-1 renal was 15.4 µM; in the assay with COLO 205 colon, 21.3 µM; in the assay on K-562 leukemia it was 20.8 µM; in the assay with TK-10 renal, 35.9 µM.
With `COc1ccc(C(=O)c2sc3nc(-c4ccccc4OC)ccc3c2N)cc1OC`, the GI50 with DU-145 prostate was 27.9 µM; in the assay with SF-295 CNS, 4.37 µM; in the assay with MDA-MB-231 breast, 3.44 µM; in the assay with SK-OV-3 ovarian it was 30.6 µM; in the assay on UACC-257 melanoma it was 6.05 µM; with HOP-62 NSCLC, 18.7 µM. Moreover, the GI50 in the assay with CAKI-1 renal is 27600 nM; in the assay on COLO 205 colon, 8.9 µM; with K-562 leukemia it was 5100 nM; in the assay with TK-10 renal it was 4.87 µM. For the same compound, the TGI is more than 100 µM in the assay on DU-145 prostate; 54.3 µM in the assay on SF-295 CNS; 42.3 µM in the assay on MDA-MB-231 breast; more than 100 µM in the assay with SK-OV-3 ovarian; more than 100 µM in the assay on UACC-257 melanoma; more than 100 µM in the assay with HOP-62 NSCLC. The TGI in the assay on CAKI-1 renal was more than 100 µM; in the assay on COLO 205 colon it was more than 100 µM; in the assay with K-562 leukemia, more than 100 µM; in the assay on TK-10 renal it was 33.4 µM.
Regarding `Cc1cc(CCl)c(C)cc1CCl`, the GI50 in the assay on DU-145 prostate was 0.733 µM; in the assay with SF-295 CNS it was 0.84 µM; with MDA-MB-231 breast it was 4.08 µM; in the assay with SK-OV-3 ovarian it was 4.92 µM; in the assay on UACC-257 melanoma it was 2.15 µM; in the assay with HOP-62 NSCLC it was 1.58 µM. For the same compound, the GI50 in the assay on CAKI-1 renal was 358 nM; in the assay on COLO 205 colon, 1.53 µM; with K-562 leukemia it was 1060 nM; with TK-10 renal it was 1.97 µM. For the same compound, the TGI was 2.92 µM in the assay with DU-145 prostate; 4.61 µM in the assay on SF-295 CNS; 18.6 µM in the assay on MDA-MB-231 breast; 23 µM in the assay with SK-OV-3 ovarian; 5.29 µM in the assay on UACC-257 melanoma; 3.79 µM with HOP-62 NSCLC. For the same compound, the TGI in the assay with CAKI-1 renal is 1.59 µM; in the assay with COLO 205 colon, 3.11 µM; in the assay on K-562 leukemia, more than 33.2 µM; in the assay on TK-10 renal it was 5.05 µM.
For the compound `CCCCCCNCCCNc1c2cc(OC)ccc2nc2cccc([N+](=O)[O-])c12`, the GI50 with DU-145 prostate was 0.162 µM; in the assay with SF-295 CNS, 0.163 µM; with MDA-MB-231 breast it was 0.247 µM; in the assay on SK-OV-3 ovarian it was 0.266 µM; with UACC-257 melanoma, 0.395 µM; in the assay with HOP-62 NSCLC, 0.124 µM. Also, the GI50 in the assay with CAKI-1 renal was 240 nM; in the assay with COLO 205 colon, 0.143 µM; in the assay with K-562 leukemia, 121 nM; in the assay on TK-10 renal, 0.322 µM. Besides, the TGI is 0.338 µM and 1.36 µM with DU-145 prostate; 0.413 µM and 1.03 µM in the assay with SF-295 CNS; 0.481 µM and 1.02 µM in the assay on MDA-MB-231 breast; 4.94 µM and 0.961 µM in the assay with SK-OV-3 ovarian; 1.4 µM and 1.47 µM in the assay with UACC-257 melanoma; 0.371 µM and 0.449 µM in the assay on HOP-62 NSCLC. For the same compound, the TGI in the assay on CAKI-1 renal was 0.797 µM and 0.748 µM; in the assay with COLO 205 colon, 0.648 µM; in the assay with K-562 leukemia, 0.489 µM and 0.352 µM; in the assay on TK-10 renal, 0.387 µM and 0.875 µM.
Consider `CN(Cc1ccc(F)cc1)c1ccc(CO)c(Cl)c1`, for which the GI50 is 29.1 µM in the assay on DU-145 prostate; 3.38 µM in the assay with SF-295 CNS; 28.7 µM in the assay on MDA-MB-231 breast; 12.2 µM in the assay with SK-OV-3 ovarian; 0.439 µM in the assay on UACC-257 melanoma; 5.13 µM in the assay with HOP-62 NSCLC. For the same compound, the GI50 with CAKI-1 renal is 2490 nM; in the assay on COLO 205 colon, 5.86 µM; in the assay with K-562 leukemia, 7990 nM; with TK-10 renal it was 0.203 µM. Besides, the TGI with DU-145 prostate was more than 100 µM; with SF-295 CNS it was more than 62.3 µM; in the assay on MDA-MB-231 breast it was more than 100 µM; with SK-OV-3 ovarian, 70.9 µM; with UACC-257 melanoma it was 1.66 µM; with HOP-62 NSCLC, more than 87.6 µM. The TGI in the assay with CAKI-1 renal is 45.8 µM; in the assay on COLO 205 colon it was 19.8 µM; with K-562 leukemia it was more than 100 µM; in the assay on TK-10 renal, 0.825 µM.
Regarding `O=C(c1ccc2ccccc2c1)c1nc2cc(F)ccc2[n+]([O-])c1C(F)(F)F`, the GI50 in the assay on DU-145 prostate is 20.9 µM; in the assay with SF-295 CNS it was 18.3 µM; with MDA-MB-231 breast it was 18.8 µM; in the assay on SK-OV-3 ovarian, 19.4 µM; in the assay on UACC-257 melanoma, 17.4 µM; with HOP-62 NSCLC, 34.4 µM. Besides, the GI50 in the assay on CAKI-1 renal is 4290 nM; in the assay on COLO 205 colon, 15.9 µM; in the assay on K-562 leukemia it was 2800 nM; with TK-10 renal, 28.5 µM. The TGI is 45.8 µM with DU-145 prostate; 37.9 µM in the assay on SF-295 CNS; 38 µM in the assay with MDA-MB-231 breast; 34.1 µM with SK-OV-3 ovarian; 35.3 µM with UACC-257 melanoma; more than 100 µM in the assay on HOP-62 NSCLC. Further, the TGI with CAKI-1 renal was 17.6 µM; with COLO 205 colon, 38.1 µM; in the assay on K-562 leukemia, 15.4 µM; in the assay with TK-10 renal it was 92.2 µM.

Values taken from PubChem BioAssay (NCI).
